# Laboratory results: US12559784B2 (priority 2023, dated 2026)
# Where “and” joins values, the source holds several entries; their conditions need not be identical. Equal values may be shown once. Read-outs that look alike come from different tables or passages of the source.
# What was measured:
# [1] = system: porcine skin
# Experimental: Our initial studies involved using fresh and frozen porcine skin “buttons”. These buttons were punched out of porcine skin (Spear Products, Cooopersburg, PA) using a […] biopsy punch tool. Three different kinds of skin buttons were prepared from fresh porcine skin, frozen porcine skin, and frozen porcine skin with the fatty layer removed. […] The next day, the tubes were taken out and vortexed and 500 μL of the solution was aliquoted into cuvettes to read at three different optical density wavelengths (OD190, OD290, OD300) to evaluate the best response.
# Skin Preparation • 1. Thaw 2 pieces of frozen porcine skin • 2. Punch out buttons: 24 buttons in each tube filled with 40 mL PB S-Azide 96-well plate Preparation • 1. Plate layout for dosing:
# Procedure • 1. Dose each tissue with 140 μL of test chemical • 2. […] Take out of incubator and vortex pulse 3× • 2. Aliquot 500 μL to cuvette and read results at OD190, OD290, and OD300
# There were three readings done at an optical density of 190, 290, and 300 nm to evaluate the best response. […] To address the variable exposure conditions, our next studies involved placing a larger porcine skin section into a holder that exposes only the epidermis side with no potential for test chemical exposure from the backside or through the sides.
# [2] = system: phosphatase; format: biochemical, porcine; settings: for percent of phosphatase measured (optical density compared to the naïve condition), average: average of two readings; for percent of phosphatase measured (optical density compared to the naïve condition): single readings
# Experimental: Our next studies involved applying the test substance (500 μL) directly to the epidermis side of previously frozen porcine skin (Spear Products, Coopersburg, PA) that is placed in a holder that only exposes the epidermis side for 30 minutes, adding phosphate buffered saline (PBS) with added sodium azide (metabolic inhibitor that ensure no viable tissue), then aliquoting into cuvettes to read at an optical density of 300 nm. […] So, at the end of the initial studies described above, almost out of frustration, we tried to probe for released phosphatase activity using p-Nitrophenyl phosphate disodium salt (PNPP; Sigma Aldrich, St. Louis, MO) substrate solution to detect any presence of phosphatase.
# Preparation • 1. Thaw 2 pieces of frozen porcine skin • a. Punch out as many skin discs and mount in holders • 2. Label cuvettes (3 for each chemical) Procedure • 1. Add 500 μL of test chemical to holder; incubate at room temperate for 30 minutes • 2. After 30 minutes, add 2 mL of PBS-Azide to both the holder containing the test chemical; forcefully pipette and re-pipette 10 times • 3. From the holder, aliquot 400 μL into 3 cuvettes; forcefully pipette and re-pipette 3 times before dispensing into cuvettes Reading Results • 1. Measure at OD300 for all cuvettes
# Skin corrosion by GHS Category 1 dermal corrosive chemicals results in the disintegration of the epidermis into the dermis.
# [3] = system: alkaline phosphatase; experiment: Alkaline phosphatase experiment, third week: with and without discs; format: biochemical; settings: 405 nm, 100 μL chemical, 18 hours 37° C., PNPP 1 hour; for raw optical density reading (PNPP), with discs (FIG. 3A): 1.25 mL reaction reagent (10,000 units); for raw optical density reading (PNPP), without discs (FIG. 3B): 1.25 mL reaction reagent
# Text: Our next study focused on an in vitro method of detecting the potential of dermal corrosives to inhibit nonspecific phosphatases that may be released from the skin. We decided to test pure […] instead of relying on endogenous skin phosphatase. Alkaline phosphatase (Sigma Aldrich, St. Louis, MO) was purchased and suspended to make the reaction reagent (10,000 units). […] We note that the ratio used was 0.1 g/ml or 10% chemical—which is far in excess of any pharmaceutical applications. We further note that pharmaceutical enzyme inhibition tests, studies an use involve highly specific active site binding and these assays are conducted at ratios of micrograms-femtograms per ml. These studies are done at these ranges because these are the realistic concentrations for drug applications and therapeutics. […] So when a 50 Kg human consumes the tables, the tissues will be exposed at a 5 mg/50 kg=0.1 mg/kg=0.0000001 g/ml.
# Next two quantitative methods were evaluated: 1) using the discs parts from our OptiSafe™ test method and 2) directly into the 24-well plate.
# Preparation • 1. Alkaline phosphatase reaction reagent • a. Take 1 vial of AP, add 1 mL of PBS, mix by pipette/re-pipette 10 times • b. To a 50 mL conical tube, add 1 mL of the AP solution prepared above and 40 mL of PBS • 2. Prepare two 24-well plates (1 with discs, 1 without discs) • 3. […] Aliquot 200 μL PNPP and PBS Procedure • 1. Plate 1 (No Discs) • a. Add 1.25 mL from the prepared PBS-AP conical tube to each well (11 wells) • b. Add 100 μL of the test material to the well, mix with the same pipette tip, dispose and repeat for the rest of the test materials • c. Wrap the plate in saran wrap and place into the container • 2. Plate 2 (Discs) • a. Configure the 11 discs in the plate so the plate cover is stable • b. Add 1.25 mL from the prepared PBS-AP conical tube to each well (11 wells) • c. Add 100 μL of the test material to the center of the disc and repeat for the rest of the test materials • d. Put the plate cover on and place into the container • 3. […] Incubate for 1 hour Reading Results • 1. Measure at OD405
# [4] = system: alkaline phosphatase; format: biochemical
# Experimental: For the new study, the alkaline phosphatase was suspended in phosphate buffered saline (PBS) to make the reaction reagent. Then, 100 μL of the test chemical is added directly into the corresponding wells on a 24-well plate with 1.25 mL of alkaline phosphatase reaction reagent already aliquoted.
# Preparation • 1. Alkaline phosphatase reaction reagent • a. Take 1 vial of AP, add 1 mL of PBS, mix by pipette/re-pipette 10 times • b. To a 50 mL conical tube, add 1 mL of the AP solution prepared above and 40 mL of PBS • 2. Prepare two 24-well plates • 3. […] Aliquot with 200 μL PNPP and PBS • 4. Prepare glass vials Repeat Procedure from 1-3-23 • 1. 24-well plate • a. Add 1.25 mL from the prepared PBS-AP conical tube to each well (11 wells) • b. Add 100 μL of the test material to the well, mix with the same pipette tip, dispose and repeat for the rest of the test materials • c. Wrap the plate in saran wrap and place into the container • 2. […] To the prepared 96-well plate with 200 μL PNPP or PBS, add 20 μL from the 24-well plate • 4. Incubate for 1 hour • 5. […] 24-well plate • a. Add 1.25 mL from the prepared PBS-AP conical tube to each well (11 wells) • b. Add 100 μL of the test material to the well, mix with the same pipette tip, dispose and repeat for the rest of the test materials • c. After 10 minutes, mix each well • 2. To the prepared 96-well plate with 200 μL PNPP or PBS, add 20 μL from the 24-well plate • 3. […] Aliquot 200 μL from the 24-well plate to glass vials filled with 2 mL of PNPP
# [5] = system: alkaline phosphatase; format: biochemical; remark: listed apart in the source
# Experimental: New stocks were made the of the 1:100 alkaline phosphatase reaction reagents.
# The conditions included: 1:100 dilution of alkaline phosphatase reaction reagent with two solvents (buffered saline and ethanol), dosing in 0.5 mL microcentrifuge tubes with 20 μL of chemical added to 180 μL of reaction reagent, and incubating with p-Nitrophenyl phosphate disodium salt (PNPP) substrate for 1-hour.
# [6] = system: skin; settings: cited from earlier work; for in vivo GHS: skin
# [7] = system: alkaline phosphatase; format: biochemical; settings: 3-hour exposure; 10 μL into 90 μL
# [8] = system: alkaline phosphatase; format: biochemical; settings: PBS; 18 hours room temperature, PNPP 1 hour
# Text: Our next study compared different dilutions of the original alkaline phosphatase source (1:10 [Activity: 1,000 units] and 1:100 [100 units]) and two sources of alkaline phosphatase, both purchased from Sigma Aldrich (St. Louis, MO). […] The five conditions for this study included original alkaline phosphatase (1:1), original alkaline phosphatase (1:10), original alkaline phosphatase (1:100), new alkaline phosphatase (1:1), and the blanks (phosphate buffered saline (PBS)). […] The two controls contained ink to determine if there would be any background effect.
# Preparation • 1. Alkaline phosphatase reaction reagent • a. Original AP • i. Add 1 mL PBS into AP vial, pipette re-pipette 10 times, then invert with cap on, to mix well. Take this 1 mL and add to 50 mL conical tube filled with 40 mL PBS. Invert to mix 10 times, vortex mix, let sit 2 minutes, invert to mix again 10 times • ii. Prepare 2 more 50 mL conical tubes • 1. 1:10 • a. […] 1:100 • a. Take 4 mL of solution made above, add to 36 mL PBS. […] New AP • i. Add 400 mg into a 50 mL conical tube filled with 40 mL PBS. Invert to mix 10 times, vortex mix, let sit 2 minutes, invert to mix 10 more times. Check to make sure all suspended. If not, vortex mix and invert until fully suspended. • 2. Prepare 24-well plates • 3. […] Aliquot with 200 μL PNPP Conditions • 1. Old AP • 2. Old AP (1:10) • 3. Old AP (1:100) • 4. New AP • 5. Blank (PBS only) Procedure • 1. 24-well plates • a. Add 1 mL (using P1000, blue tips) of the prepared PBS-AP to the plate (for each condition) • b. Add 100 μL of the test material to the well, mix with the same pipette tip, dispose and repeat for the rest of the test materials • c. Wrap the plate in saran wrap and place into the container • d. […] To the prepared 96-well plate with 200 μL PNPP or PBS, add 20 μL from the 24-well plate • 3. Incubate for 1 hour • 4.
# [9] = system: alkaline phosphatase; settings: 30 μL chemical in 300 μL reagent 1:100, 4 hours room temperature, 3 mL PNPP 1 hour
# Experimental: We changed the test chemical dosage to 30 μL and the alkaline phosphatase reaction reagent to 300 μL, but kept the incubation to 4 hours at room temperature.
# PBS: Take 4 mL of AP (1:10) stock solution, add to 36 mL PBS. Vortex mix and then invert to mix 10 times • ii. […] Vortex mix and then invert to mix 10 times • b. PBS (lx) • c. […] Prepare 4 mL glass vials for dosing • a. Four sets • i. R1+ (PBS-AP) • ii. R1− (PBS) • iii. […] Prepare 96-well plates for PNPP reading (3 wells for each test chemical) Procedure • 1. Aliquot 300 μL of each reaction reagent to 4 mL glass vials. • 2. Add 30 μL of the test sample to each 4 mL glass vial. • 3. Incubate at room temperature for 4 hours. • 4. Aliquot 3 mL of PNPP to each 4 mL glass vial, let sit for 1 hr. • a. Aliquot 750 μL into the 4 mL glass vial to stop the reaction. • 5.
# [10] = 10 minutes test chemical exposure
# [11] = chemical lists of the experiments
compound,measurement,setting,value
CN(C)CCCNCCCN [Dimethyldipropylenetriamine],OD190,"[1]; fresh porcine skin, 140 μL test chemical, R 1 and 2, >3A = outside readable range",>3A
same,"percent of phosphatase measured (optical density compared to the naïve condition), average",[2],20.6%
same,percent of phosphatase measured (optical density compared to the naïve condition),[2],23.5% and 17.7%
same,"raw optical density reading (PNPP), with discs (FIG. 3A)",[3],0.152 and 0.159 and 0.140
same,"raw optical density reading (PNPP), without discs (FIG. 3B)",[3],0.138 and 0.176 and 0.133
same,"raw optical density reading (PNPP), repeat without discs (FIG. 4)","[4]; 405 nm, 18 hours 37° C. exposure, PNPP 1 hour",0.132 and 0.128 and 0.127
same,10-minute PNPP incubation readings (FIG. 5A),[4]; [10],3.500
same,18-hour PNPP incubation readings (FIG. 5D),[4]; [10],0.110
same,A2 - Results AVG,[5],0.117
same,A2 - Results R1,[5],0.119
same,A2 - Results R3,[5],0.114
same,Corrosive,[6]; Yes/No,Yes
same,in vivo GHS,[6]; Tables 1A-1C and 2,Cat. 1A
same,in vivo GHS,[6]; [11],Cat. 1A
"C=CCCC=C [1,5-Hexadiene]","OD405 reading, ethanol solvent, 10 μL dose, 1-hour PNPP (FIG. 7B)",[7],2.947
same,"OD405 reading, ethanol solvent, 10 μL dose, 30-minute PNPP (FIG. 7A)",[7],1.702
same,A2 - Results AVG,[5],2.717
same,A2 - Results R1,[5],2.692
same,A2 - Results R3,[5],2.693
Cc1ccc(C(C)C)cc1O,"OD405 readings, original alkaline phosphatase 1:100 (FIG. 6D)",[8],0.991 and 0.974 and 1.167
same,A2 - Results AVG,[5],2.597
same,A2 - Results R1,[5],2.462
same,A2 - Results R3,[5],2.772
same,"OD405 readings, buffered saline alkaline phosphatase reaction reagent, glass vials (FIG. 11B)",[9],1.990 and 1.926
same,"OD405 readings, ethanol alkaline phosphatase reaction reagent, glass vials (FIG. 11D)",[9],3.444 and 3.465 and 3.398
same,in vivo GHS,[6]; [11],Cat. 1B/1C
CCCCCCCC(=O)O [Octanoic Acid],"OD405 readings, original alkaline phosphatase 1:100 (FIG. 6D)",[8],3.462 and 3.491 and 3.333
same,A2 - Results AVG,[5],2.342
same,A2 - Results R1,[5],2.12
same,A2 - Results R3,[5],2.129
same,"OD405 readings, buffered saline alkaline phosphatase reaction reagent, glass vials (FIG. 11B)",[9],1.427 and 1.415 and 1.416
same,"OD405 readings, ethanol alkaline phosphatase reaction reagent, glass vials (FIG. 11D)",[9],3.283 and 3.408 and 3.220
CCCCCCCCC=O [Nonyl aldehyde],"OD405 reading, ethanol solvent, 10 μL dose, 1-hour PNPP (FIG. 7B)",[7],3.078
same,"OD405 reading, ethanol solvent, 10 μL dose, 30-minute PNPP (FIG. 7A)",[7],1.589
same,A2 - Results AVG,[5],2.227
same,A2 - Results R1,[5],2.496
same,A2 - Results R3,[5],2.117
same,in vivo GHS,[6]; [11],Cat. 2
"[K+].[OH-] [Potassium hydroxide (10%), Potassium hydroxide]","raw optical density reading (PNPP), repeat without discs (FIG. 4)",[4],0.123 and 0.124
same,A2 - Results AVG,[5],0.108
same,A2 - Results R1,[5],0.107
same,A2 - Results R3,[5],0.108
CC(=O)O [Acetic acid],OD190,[1]; pig,>3A
same,"percent of phosphatase measured (optical density compared to the naïve condition), average",[2],18.9%
same,percent of phosphatase measured (optical density compared to the naïve condition),[2],19.1% and 18.6%
same,"raw optical density reading (PNPP), with discs (FIG. 3A)",[3],0.106 and 0.102 and 0.103
same,"raw optical density reading (PNPP), without discs (FIG. 3B)",[3],0.104 and 0.129 and 0.101
same,A1 - Results AVG,[5],0.096
same,A1 - Results R1,[5],0.096
same,A1 - Results R3,[5],0.096
same,A2 - Results AVG,[5],0.850
same,A2 - Results R1,[5],0.996
same,A2 - Results R3,[5],0.829
same,Corrosive,"[6]; rabbit, in vivo",Yes
